# Results published in PMC4319022 (The Journal of Biological Chemistry, 2014).
# Where two headings read alike, the source gives them in different places.
# Key:
# human α7 nAChR [1] = molecular target: T1, human α7 nAChR (Homo sapiens, UniProt P36544); assay: two-electrode voltage clamp, Xenopus oocytes; format: cell-based
# T1 construct: gene CHRNA7; full-length subunit cDNA in pSP64GL, cRNA injected in Xenopus laevis oocytes, homopentamer
# Excerpt: two-electrode voltage clamp, Xenopus oocytes on human α7 nAChR
# human α7 nAChR [2] = molecular target: T1, human α7 nAChR; assay: two-electrode voltage clamp, Xenopus oocytes; format: cell-based; remark: listed apart in the source
# T1 sequence (P36544 23-502): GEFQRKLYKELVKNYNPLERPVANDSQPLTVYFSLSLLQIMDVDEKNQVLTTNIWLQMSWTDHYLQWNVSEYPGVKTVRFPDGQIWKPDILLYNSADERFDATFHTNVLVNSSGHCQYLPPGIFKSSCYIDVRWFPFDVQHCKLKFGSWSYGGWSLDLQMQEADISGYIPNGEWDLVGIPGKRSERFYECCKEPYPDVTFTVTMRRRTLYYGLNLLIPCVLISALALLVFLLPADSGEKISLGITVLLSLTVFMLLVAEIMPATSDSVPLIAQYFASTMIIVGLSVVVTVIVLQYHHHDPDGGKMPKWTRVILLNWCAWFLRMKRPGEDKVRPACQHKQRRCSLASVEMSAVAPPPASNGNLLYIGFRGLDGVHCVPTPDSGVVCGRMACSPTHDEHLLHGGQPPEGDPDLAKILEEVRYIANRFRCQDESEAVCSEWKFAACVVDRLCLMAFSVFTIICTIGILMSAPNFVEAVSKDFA
Structure (SMILES),EC50 (human α7 nAChR [1]; read-out: EC50),further results
"Cc1cc(C)c(C2Nc3ccc(S(N)(=O)=O)cc3C3C=CCC32)c(C)c1C (stereo not drawn) [2,3,4,6MP-TQS, cis-trans-4-(2,3,4,6-tetramethylphenyl)-3a,4,5,9b-tetrahydro-3H-cyclopenta[c]quinoline-8-sulfonamide]",9.1 ± 2 µM,
"Cc1ccc(C2Nc3ccc(S(N)(=O)=O)cc3C3C=CCC32)c(C)c1C (stereo not drawn) [2,3,4MP-TQS, cis-cis-4-(2,3,4-trimethylphenyl)-3a,4,5,9b-tetrahydro-3H-cyclopenta[c]quinoline-8-sulfonamide]",9.8 ± 0.8 µM,
"Cc1cc(C)c(C)c(C2Nc3ccc(S(N)(=O)=O)cc3C3C=CCC32)c1 (stereo not drawn) [2,3,5MP-TQS, cis-cis-4-(2,3,5-trimethylphenyl)-3a,4,5,9b-tetrahydro-3H-cyclopenta[c]quinoline-8-sulfonamide]",3.9 ± 0.7 µM,
"Cc1ccc(C)c(C2Nc3ccc(S(N)(=O)=O)cc3C3C=CCC32)c1C (stereo not drawn) [2,3,6MP-TQS, cis-trans-4-(2,3,6-trimethylphenyl)-3a,4,5,9b-tetrahydro-3H-cyclopenta[c]quinoline-8-sulfonamide]",,IC50 (human α7 nAChR [2]): 23 ± 2.8 µM
"Cc1cc(C)c(C2Nc3ccc(S(N)(=O)=O)cc3C3C=CCC32)c(C)c1 (stereo not drawn) [2,4,6MP-TQS, cis-trans-4-mesityl-3a,4,5,9b-tetrahydro-3H-cyclopenta[c]quinoline-8-sulfonamide]",,IC50 (human α7 nAChR [2]): 5.2 ± 0.8 µM
"Cc1ccc(C2Nc3ccc(S(N)(=O)=O)cc3C3C=CCC32)c(C)c1 (stereo not drawn) [2,4MP-TQS, cis-cis-4-(2,4-dimethylphenyl)-3a,4,5,9b-tetrahydro-3H-cyclopenta[c]quinoline-8-sulfonamide]",11 ± 1 µM,
"Cc1cccc(C)c1C1Nc2ccc(S(N)(=O)=O)cc2C2C=CCC21 (stereo not drawn) [2,6MP-TQS, cis-trans-4-(2,6-dimethylphenyl)-3a,4,5,9b-tetrahydro-3H-cyclopenta[c]quinoline-8-sulfonamide]",,IC50 (human α7 nAChR [2]): 43 ± 14 µM
"Cc1ccccc1C1Nc2ccc(S(N)(=O)=O)cc2C2C=CCC21 (stereo not drawn) [2MP-TQS, cis-cis-4-o-tolyl-3a,4,5,9b-tetrahydro-3H-cyclopenta[c]quinoline-8-sulfonamide]",16 ± 1.3 µM,
"Cc1ccc(C2Nc3ccc(S(N)(=O)=O)cc3C3C=CCC32)cc1C (stereo not drawn) [3,4MP-TQS, cis-cis-4-(3,4-dimethylphenyl)-3a,4,5,9b-tetrahydro-3H-cyclopenta[c]quinoline-8-sulfonamide]",,"Imax (human α7 nAChR [1]; 100 μM, allosteric agonist, relative to 3 mM acetylcholine, -60 mV): 7.8 ± 3.0 fold effect"
"Cc1cc(C)cc(C2Nc3ccc(S(N)(=O)=O)cc3C3C=CCC32)c1 (stereo not drawn) [3,5MP-TQS, cis-cis-4-(3,5-dimethylphenyl)-3a,4,5,9b-tetrahydro-3H-cyclopenta[c]quinoline-8-sulfonamide]",3.7 ± 1.2 µM,
"Cc1cccc(C2Nc3ccc(S(N)(=O)=O)cc3C3C=CCC32)c1 (stereo not drawn) [3MP-TQS, cis-cis-4-m-tolyl-3a,4,5,9b-tetrahydro-3H-cyclopenta[c]quinoline-8-sulfonamide]",,"Fold potentiation (human α7 nAChR [1]; allosteric potentiation (type II PAM) of 100 μM acetylcholine, maximal PAM concentration (100 μM, Figure 4), -60 mV): 22 ± 2.1 fold"
"Cc1ccc(C2Nc3ccc(S(N)(=O)=O)cc3C3C=CCC32)cc1 (stereo not drawn) [4MP-TQS, cis-cis-4-p-tolyl-3a,4,5,9b-tetrahydro-3H-cyclopenta[c]quinoline-8-sulfonamide]",27 ± 3.1 µM,
"Cc1c(C)c(C)c(C2Nc3ccc(S(N)(=O)=O)cc3C3C=CCC32)c(C)c1C (stereo not drawn) [PentaMP-TQS, cis-trans-4-(2,3,4,5,6-pentamethylphenyl)-3a,4,5,9b-tetrahydro-3H-cyclopenta[c]quinoline-8-sulfonamide]",,"EC50 (human α7 nAChR [1]; allosteric potentiation (type I PAM) of 100 μM acetylcholine, 10 s preapplication, -60 mV, bell-shaped curve, unreliable): 0.55 ± 0.36 µM"
